Among the data in patent US20210355104A1, “ADENOSINE RECEPTOR BINDING COMPOUNDS” (Nikang Therapeuticsm Inc., priority 2018, published 2021) are IC50 values, retold here.

Experiment [1] deals with T1, Adenosine A2A receptor (Homo sapiens, UniProt P29274). The experiment is described as follows: cAMP assay in 293A cells stably expressing the adenosine A2A receptor (CGS21680 stimulation, HTRF). The class given is cell-based. Set-up: expressed in transfected cells; host or cells: 293A cells (Invitrogen, Cat# R705-07) infected with A2A-expressing lentivirus (custom packaged by Biosettia), puromycin selected. As to conditions: 293A-A2AR cells, 0.1% BSA, values separated by / are repeat determinations. Background: Changes in cAMP serve as a functional read-out for many G protein-coupled receptors.

Experiment [2] concerns the target T1, Adenosine A2A receptor. In words: Adenosine A2A receptor competitive binding assay (Tag-lite HTRF). As to conditions: Tag-lite adenosine A2A receptor ligand binding, 2 h room temperature; values separated by / are repeat determinations. The procedure, abridged:
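Tag-lite HTRF competition: donor-labelled cells expressing human A2A were mixed with serially diluted compounds (DMSO 0.6% in dilutions) and red fluorescent A2A antagonist ligand (60 nM stock). Incubated 2 h at room temperature before HTRF readout.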
On the technique in general: TR-FRET usually uses a lanthanide donor and a delayed reading to cut background.

Where [3] appears, read: 8 nM CGS, read-out: cAMP (nM) 0.1% BSA, 8 nM CGS.
The mark [4] stands for this setting: 1 uM CGS, read-out: cAMP (nM) 0.1% BSA, 1 uM CGS.

“And” between values parts separate entries of the source, which are not always exact repeats. Identical values can stand only once. Some results are limits rather than exact numbers.

T1 sequence (P29274 whole entry): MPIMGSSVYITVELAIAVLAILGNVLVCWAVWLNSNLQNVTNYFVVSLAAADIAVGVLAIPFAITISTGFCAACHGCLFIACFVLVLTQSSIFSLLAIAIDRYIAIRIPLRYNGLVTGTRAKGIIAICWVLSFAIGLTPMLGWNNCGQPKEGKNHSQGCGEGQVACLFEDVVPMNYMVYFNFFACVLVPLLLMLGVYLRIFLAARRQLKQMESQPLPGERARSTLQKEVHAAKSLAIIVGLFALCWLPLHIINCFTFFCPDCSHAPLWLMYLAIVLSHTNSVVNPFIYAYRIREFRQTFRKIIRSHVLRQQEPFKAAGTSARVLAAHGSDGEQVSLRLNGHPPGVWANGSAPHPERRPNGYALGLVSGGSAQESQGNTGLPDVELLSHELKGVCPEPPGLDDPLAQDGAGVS

On to `COCCOc1nc(N)nc(-c2ccc(F)cc2)c1-c1cc(C)nc(C(F)F)c1` [Example 48, 5-(2-(difluoromethyl)-6-methylpyridin-4-yl)-4-(4-fluorophenyl)-6-(2-methoxyethoxy)pyrimidin-2-amine], for which the IC50 was 0.72 nM and 0.18 nM in experiment [1] (setting [3]); 0.0037 µM in experiment [2].
For `COC(=O)N1CCN(CCOc2nc(N)nc(-c3ccc(F)cc3)c2-c2cc(C)nc(C(F)F)c2)CC1` [Example 51, methyl 4-(2-((2-amino-5-(2-(difluoromethyl)-6-methylpyridin-4-yl)-6-(4-fluorophenyl)pyrimidin-4-yl)oxy)ethyl)piperazine-1-carboxylate], the IC50 in experiment [1] (setting [3]) stood at 3.9 nM; in experiment [2] it was 0.01 µM.
With `Cc1cc(-c2c(OCCN3CCN(C4COC4)CC3)nc(N)nc2-c2ccc(F)cc2)cc(C(F)F)n1` [Example 52, 5-(2-(difluoromethyl)-6-methylpyridin-4-yl)-4-(4-fluorophenyl)-6-(2-(4-(oxetan-3-yl)piperazin-1-yl)ethoxy)pyrimidin-2-amine], the figures for the IC50 in experiment [1] (setting [3]) and in experiment [2] were 532 nM and 0.12 µM, respectively.
In the same order, the values of `COCCOc1ccc(N2CCN(CCOc3nc(N)nc(-c4ccc(F)cc4)c3-c3cc(C)nc(C(F)F)c3)CC2)cc1` [Example 53, 5-(2-Difluoromethyl-6-methyl-pyridin-4-yl)-4-(4-fluoro-phenyl)-6-(2-{4-[4-(2-methoxy-ethoxy)-phenyl]-piperazin-1-yl}-ethoxy)-pyrimidin-2-ylamine] are 0.67 nM and 0.013 µM.
Turning to `CCOC(=O)NCCOc1nc(N)nc(-c2ccc(F)cc2)c1-c1cc(C)nc(C(F)F)c1` [Example 54, ethyl(2-((2-amino-5-(2-(difluoromethyl)-6-methylpyridin-4-yl)-6-(4-fluorophenyl)pyrimidin-4-yl)oxy)ethyl)carbamate], the IC50 is 0.22 nM and 1.45 nM in experiment [1] (setting [3]); 0.0021 µM and 0.01 µM in experiment [2].
As to `Cc1cc(-c2c(OCCN3CCN(c4ccc(S(C)(=O)=O)cc4)CC3)nc(N)nc2-c2ccc(F)cc2)cc(C(F)F)n1` [Example 56, 5-(2-(difluoromethyl)-6-methylpyridin-4-yl)-4-(4-fluorophenyl)-6-(2-(4-(4-(methylsulfonyl)phenyl)piperazin-1-yl)ethoxy)pyrimidin-2-amine], the IC50 in experiment [1] (setting [3]) worked out at 3.6 nM; in experiment [2] it was 0.0089 µM.
With `Cc1cc(-c2c(OCCc3ccc(N4CCN(C)CC4)cc3)nc(N)nc2-c2ccc(F)cc2)cc(C(F)F)n1` [Example 57, 5-(2-(difluoromethyl)-6-methylpyridin-4-yl)-4-(4-fluorophenyl)-6-(4-(4-methylpiperazin-1-yl)phenethoxy)pyrimidin-2-amine], the IC50 in experiment [1] (setting [3]) was 1.7 nM; in experiment [2], 0.002 µM and 0.014 µM.
With `Cc1cc(-c2c(OCCNS(N)(=O)=O)nc(N)nc2-c2ccc(F)cc2)cc(C(F)F)n1` [Example 59], the IC50 in experiment [1] (setting [3]) was 2.2 nM and 1.3 nM; in experiment [1] (setting [4]), 663 nM and 394 nM; in experiment [2], 0.0018 µM and 0.0078 µM.
For `CCNC(=O)NCCOc1nc(N)nc(-c2ccc(F)cc2)c1-c1cc(C)nc(C(F)F)c1` [Example 60, 1-(2-((2-amino-5-(2-(difluoromethyl)-6-methylpyridin-4-yl)-6-(4-fluorophenyl)pyrimidin-4-yl)oxy)ethyl)-3-ethylurea], the IC50 in experiment [1] (setting [3]) is 1.7 nM and 2.2 nM; in experiment [2], 0.0036 µM and 0.0088 µM.
Take `Cc1cc(-c2c(OCC(C)(C)C(=O)O)nc(N)nc2-c2ccc(F)cc2)cc(C(F)F)n1` [Example 61, 3-((2-amino-5-(2-(difluoromethyl)-6-methylpyridin-4-yl)-6-(4-fluorophenyl)pyrimidin-4-yl)oxy)-2,2-dimethylpropanoic acid]: the IC50 in experiment [1] (setting [3]) is 233 nM; in experiment [2] it was 0.28 µM.
Regarding `Cc1cc(-c2c(OCC(C)(C)O)nc(N)nc2-c2ccc(F)cc2)cc(C(F)F)n1` [Example 62, 1-((2-amino-5-(2-(difluoromethyl)-6-methylpyridin-4-yl)-6-(4-fluorophenyl)pyrimidin-4-yl)oxy)-2-methylpropan-2-ol], the IC50 was 15 nM in experiment [1] (setting [3]) and 0.015 µM in experiment [2].
As for `CCOC(=O)NCc1nc(N)nc(-c2ccccc2)c1-c1cc(C)nc(C(F)(F)F)c1` [Example 63, Ethyl((2-amino-5-(2-methyl-6-(trifluoromethyl)pyridin-4-yl)-6-phenylpyrimidin-4-yl)methyl)carbamate], the IC50 was determined as 8.3 nM in experiment [1] (setting [3]) and 0.037 µM in experiment [2].
Consider `CCNCCOc1nc(N)nc(-c2ccc(F)cc2)c1-c1cc(C)nc(C(F)F)c1` [Example 65, 5-(2-(difluoromethyl)-6-methylpyridin-4-yl)-4-(2-(ethylamino)ethoxy)-6-(4-fluorophenyl)pyrimidin-2-amine], for which the IC50 in experiment [1] (setting [3]) was 1.6 nM; in experiment [1] (setting [4]), 1010 nM; in experiment [2], 0.042 µM.
For the compound `Cc1cc(-c2c(OCCc3ccc(OC4CCN(S(C)(=O)=O)C4)cc3)nc(N)nc2-c2ccc(F)cc2)cc(C(F)F)n1` (stereo not drawn) [Example 66, 5-(2-(difluoromethyl)-6-methylpyridin-4-yl)-4-(4-fluorophenyl)-6-(4-((1-(methylsulfonyl)pyrrolidin-3-yl)oxy)phenethoxy)pyrimidin-2-amine], the IC50 amounted to 337 nM in experiment [1] (setting [3]) and 0.095 µM in experiment [2].
As to `CCNC(=O)Nc1ccc(CCOc2nc(N)nc(-c3ccc(F)cc3)c2-c2cc(C)nc(C(F)F)c2)cc1` [Example 67, 1-(4-(2-((2-amino-5-(2-(difluoromethyl)-6-methylpyridin-4-yl)-6-(4-fluorophenyl)pyrimidin-4-yl)oxy)ethyl)phenyl)-3-ethylurea], the IC50 is 4.7 nM in experiment [1] (setting [3]) and 0.027 µM in experiment [2].
In the same order, the values of `Cc1cc(-c2c(OCCc3ccc(C(C)(C)O)cc3)nc(N)nc2-c2ccc(F)cc2)cc(C(F)F)n1` [Example 68, 2-(4-(2-((2-amino-5-(2-(difluoromethyl)-6-methylpyridin-4-yl)-6-(4-fluorophenyl)pyrimidin-4-yl)oxy)ethyl)phenyl)propan-2-ol] are 2.7 nM and 0.022 µM.
For `Cc1cc(-c2c(OCCc3ccc(NS(C)(=O)=O)cc3)nc(N)nc2-c2ccc(F)cc2)cc(C(F)F)n1` [Example 69, N-(4-(2-((2-amino-5-(2-(difluoromethyl)-6-methylpyridin-4-yl)-6-(4-fluorophenyl)pyrimidin-4-yl)oxy)ethyl)phenyl)methanesulfonamide] the same measures were 5.8 nM and 0.038 µM.
For the compound `Cc1cc(-c2c(OCCC(C)(C)C(=O)O)nc(N)nc2-c2ccc(F)cc2)cc(C(F)F)n1` [Example 70, 4-((2-amino-5-(2-(difluoromethyl)-6-methylpyridin-4-yl)-6-(4-fluorophenyl)pyrimidin-4-yl)oxy)-2,2-dimethylbutanoic acid], the IC50 in experiment [1] (setting [4]) was 513 nM and 315 nM and 231 nM and 229 nM and 143 nM; in experiment [2], 0.0036 µM and 0.001 µM and 0.004 µM.
Regarding `Cc1cc(-c2c(OCC(=O)O)nc(N)nc2-c2ccc(F)cc2)cc(C(F)F)n1` [Example 71, 2-((2-amino-5-(2-(difluoromethyl)-6-methylpyridin-4-yl)-6-(4-fluorophenyl)pyrimidin-4-yl)oxy)acetic acid], the IC50 in experiment [1] (setting [3]) was more than 1000 nM; in experiment [2], more than 1 µM.
In the same order, the values of `Cc1cc(-c2c(O[C@H](C)CO)nc(N)nc2-c2ccc(F)cc2)cc(C(F)F)n1` [Example 73, (R)-2-((2-amino-5-(2-(difluoromethyl)-6-methylpyridin-4-yl)-6-(4-fluorophenyl)pyrimidin-4-yl)oxy)propan-1-ol] are 3.6 nM and 0.025 µM.
For `Cc1cc(-c2c(OC[C@@H](C)O)nc(N)nc2-c2ccc(F)cc2)cc(C(F)F)n1` [Example 74, (R)-1-((2-amino-5-(2-(difluoromethyl)-6-methylpyridin-4-yl)-6-(4-fluorophenyl)pyrimidin-4-yl)oxy)propan-2-ol], the IC50 is 693 nM in experiment [1] (setting [4]); 0.0084 µM and 0.0157 µM in experiment [2].
With `Cc1cc(-c2c(OCC3CNC3)nc(N)nc2-c2ccc(F)cc2)cc(C(F)F)n1` [Example 75, 4-(azetidin-3-ylmethoxy)-5-(2-(difluoromethyl)-6-methylpyridin-4-yl)-6-(4-fluorophenyl)pyrimidin-2-amine], the IC50 is 89 nM in experiment [1] (setting [3]) and 0.201 µM in experiment [2].
In the same order, the values of `Cc1cc(-c2c(O[C@@H](C)CO)nc(N)nc2-c2ccc(F)cc2)cc(C(F)F)n1` [Example 76, (S)-2-((2-amino-5-(2-(difluoromethyl)-6-methylpyridin-4-yl)-6-(4-fluorophenyl)pyrimidin-4-yl)oxy)propan-1-ol] are 3.2 nM and 0.019 µM.
On to `Cc1cc(-c2c(OC[C@H](C)O)nc(N)nc2-c2ccc(F)cc2)cc(C(F)F)n1` [Example 77, (S)-1-((2-amino-5-(2-(difluoromethyl)-6-methylpyridin-4-yl)-6-(4-fluorophenyl)pyrimidin-4-yl)oxy)propan-2-ol], for which the IC50 in experiment [1] (setting [4]) was 547 nM; in experiment [2] it was 0.0039 µM and 0.0042 µM.
With `Cc1cc(-c2c(CNC(=O)N(C)C)nc(N)nc2-c2ccc(F)cc2)cc(C(F)F)n1` [Example 78, 3-((2-amino-5-(2-(difluoromethyl)-6-methylpyridin-4-yl)-6-(4-fluorophenyl)pyrimidin-4-yl)methyl)-1,1-dimethylurea], the IC50 was determined as 51 nM in experiment [1] (setting [3]) and 0.011 µM in experiment [2].
For `Cc1cc(-c2c(OCCCN3CCOCC3)nc(N)nc2-c2ccc(F)cc2)cc(C(F)F)n1` [Example 80, 5-(2-(difluoromethyl)-6-methylpyridin-4-yl)-4-(4-fluorophenyl)-6-(3-morpholinopropoxy)pyrimidin-2-amine] the same measures were 6.4 nM and 0.042 µM.
